Results from patent US20150352108A1, “AMINO-PYRIMIDINE COMPOUNDS AS INHIBITORS OF TBK1 AND/OR IKK EPSILON” (Alzheimer's Institute of America, priority 2009, published 2015).
Like-named read-outs stand apart in the source and are kept apart here.

What was measured:
IKKε = molecular target: T1, IKKε (Homo sapiens, UniProt Q14164); assay: In-vitro IKKε kinase assay ([γ33]ATP filter-plate); assay type: biochemical
T1 construct: His-tag; made in house; host or cells: Sf9 insect cells
T1 sequence (Q14164 1-716): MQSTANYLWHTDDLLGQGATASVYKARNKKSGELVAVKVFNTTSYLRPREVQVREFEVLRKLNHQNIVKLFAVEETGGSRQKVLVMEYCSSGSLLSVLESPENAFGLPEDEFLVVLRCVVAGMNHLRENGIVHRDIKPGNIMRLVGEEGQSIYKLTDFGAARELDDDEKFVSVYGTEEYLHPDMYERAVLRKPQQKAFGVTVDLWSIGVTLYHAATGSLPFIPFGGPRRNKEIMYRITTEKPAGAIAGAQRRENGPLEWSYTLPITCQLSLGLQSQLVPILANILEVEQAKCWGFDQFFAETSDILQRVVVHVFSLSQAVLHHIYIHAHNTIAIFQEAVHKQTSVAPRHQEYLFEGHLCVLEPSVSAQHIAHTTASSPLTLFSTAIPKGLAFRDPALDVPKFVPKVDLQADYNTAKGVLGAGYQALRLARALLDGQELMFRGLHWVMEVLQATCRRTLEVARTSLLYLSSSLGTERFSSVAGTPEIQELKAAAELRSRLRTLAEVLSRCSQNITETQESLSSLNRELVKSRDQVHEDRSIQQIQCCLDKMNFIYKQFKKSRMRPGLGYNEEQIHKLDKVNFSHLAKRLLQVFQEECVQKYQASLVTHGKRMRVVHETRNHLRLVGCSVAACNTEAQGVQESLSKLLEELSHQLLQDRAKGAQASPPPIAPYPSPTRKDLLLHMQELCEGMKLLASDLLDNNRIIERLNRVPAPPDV
In short: (§1)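 Phosphorylation of casein or myelin basic protein was counted by P-81 filter capture after 30-45 min reactions stopped with phosphoric acid, with counts normalized to DMSO after background subtraction. ATP was twice Km: 60 μM for TBK1 and 32 μM for IKKε, plus [γ33]ATP. Sf9-expressed His-tag enzymes were used at normal/sensitized levels of 0.1/0.02 μg/ml (TBK1) and 0.1/0.015 μg/ml (IKKε).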

TBK1 = molecular target: T2, TBK1 (Homo sapiens, UniProt Q9UHD2); assay: In-vitro TBK1 kinase assay ([γ33]ATP filter-plate); assay type: biochemical
T2 construct: His-tag; made in house; host or cells: Sf9 insect cells
T2 sequence (Q9UHD2 1-729): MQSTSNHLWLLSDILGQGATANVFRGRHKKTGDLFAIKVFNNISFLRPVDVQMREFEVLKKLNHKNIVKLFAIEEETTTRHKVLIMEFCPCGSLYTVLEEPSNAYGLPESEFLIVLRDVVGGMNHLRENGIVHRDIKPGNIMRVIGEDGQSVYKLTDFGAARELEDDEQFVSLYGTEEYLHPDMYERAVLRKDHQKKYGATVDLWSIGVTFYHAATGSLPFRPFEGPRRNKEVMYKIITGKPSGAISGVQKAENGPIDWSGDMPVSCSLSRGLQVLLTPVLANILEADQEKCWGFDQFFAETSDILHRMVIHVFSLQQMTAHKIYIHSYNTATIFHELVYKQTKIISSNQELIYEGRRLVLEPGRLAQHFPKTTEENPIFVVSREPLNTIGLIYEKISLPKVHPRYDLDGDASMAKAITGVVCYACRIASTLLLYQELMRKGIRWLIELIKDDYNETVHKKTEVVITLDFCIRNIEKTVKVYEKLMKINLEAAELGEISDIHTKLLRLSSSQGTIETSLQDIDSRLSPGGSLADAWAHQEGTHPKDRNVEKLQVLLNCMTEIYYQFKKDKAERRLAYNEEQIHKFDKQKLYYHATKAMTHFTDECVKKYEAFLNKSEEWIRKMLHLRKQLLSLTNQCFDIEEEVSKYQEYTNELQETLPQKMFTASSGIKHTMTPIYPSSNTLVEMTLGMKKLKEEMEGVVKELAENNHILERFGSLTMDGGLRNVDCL
In short: as §1

[1] = tested on: IKKε-mediated phosphorylation of IRF3; assay: In-situ phosphorylation of IRF3 (pIRF3 Ser396 ELISA) in HEK293T cells cotransfected with IRF3 and IKKε; assay type: cell-based; settings: Homo sapiens, HEK-293T
In short: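 For the IRF3 ELISA, HEK293T cells cotransfected with IRF3 and IKKε were replated at 20,000/well and treated 20 h. Phospho-Ser396 IRF3 was measured by ELISA and normalised to DMSO, with viability checked by CellTiter-Glo. For IRF7, cells transfected with IRF7 and TBK1 were treated overnight, and pSer477/Ser479 IRF7 was detected by Western blot.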

[2] = text bins, read-out: IC50 for inhibition of the kinase activity of IKKε
[3] = text bins, read-out: IC50 for inhibition of the kinase activity of TBK1
[4] = HEK293T cells, 20 hours, text bins, read-out: IC50 for inhibition of the in-situ IKKε-mediated phosphorylation of IRF3
[5] = HEK293T cells in culture, Table 3, read-out: pIRF3 ELISA IC50

| IC50 (IKKε; [2]) [µM] | IC50 (TBK1; [3]) [µM] | IC50 [1, 4] [µM] | IC50 (IKKε; Table 3, read-out: IKKε IC50) [µM] | IC50 (TBK1; Table 3, read-out: TBK1 IC50) [µM] | IC50 [1, 5] [µM] | SMILES |
| --- | --- | --- | --- | --- | --- | --- |
| < 0.005 | < 0.01 | 0.1 to 0.25 | – | – | – | COc1cc(Nc2nccc(-c3ccc(OC4CCOCC4)c(C#N)c3)n2)ccc1OCCCS(=O)(=O)N1CCN(C)CC1 [Example 25, 5-{2-[(3-methoxy-4-{3-[(4-methylpiperazin-1-yl)sulfonyl]propoxy}phenyl)amino]pyrimidin-4-yl}-2-(tetrahydro-2H-pyran-4-yloxy)benzonitrile] |
| < 0.005 | < 0.01 | 0.25 to 0.5 | – | – | – | COc1cc(Nc2nccc(-c3ccc(OC4CCOCC4)c(C#N)c3)n2)ccc1OCCOCCNS(=O)(=O)N1CCN(C)CC1 [Example 27, N-(2-{2-[4-({4-[3-cyano-4-(tetrahydro-2H-pyran-4-yloxy)phenyl]pyrimidin-2-yl}amino)-2-methoxyphenoxy]ethoxy}ethyl)-4-methylpiperazine-1-sulfonamide] |
| < 0.005 | < 0.01 | 0.25 to 0.5 | – | – | – | COc1cc(Nc2nccc(-c3ccc(OC4CCOCC4)c(C#N)c3)n2)ccc1OCCN [Example 30, 5-(2-{[4-(2-aminoethoxy)-3-methoxyphenyl]amino}pyrimidin-4-yl)-2-(tetrahydro-2H-pyran-4-yloxy)benzonitrile] |
| < 0.005 | < 0.01 | < 0.1 | – | – | – | COc1cc(Nc2nccc(-c3ccc(OC4CCOCC4)c(C#N)c3)n2)ccc1OCCCN1CCOCC1 [Example 31, 5-[2-({3-methoxy-4-[3-(morpholin-4-tl)propoxy]phenyl}amino)pyrimidin-4-yl]-2-(tetrahydro-2H-pyran-4-yloxy)benzonitrile] |
| < 0.005 | < 0.01 | 0.1 to 0.25 | – | – | – | COc1ccc(Nc2nccc(-c3ccc(OC4CCOCC4)c(C#N)c3)n2)cc1OCCOCCN [Example 32, 5-[2-({3-[2-(2-aminoethoxy)ethoxy]-4-methoxyphenyl}amino)pyrimidin-4-yl]-2-(tetrahydro-2H-pyran-4-yloxy)benzonitrile] |
| < 0.005 | < 0.01 | 0.25 to 0.5 | – | – | – | C[C@H](O)C(=O)N1CCC(Oc2ccc(-c3ccnc(Nc4ccc(C(=O)N5CCN(C)CC5)cc4)n3)cc2C#N)CC1 [Example 35, 2-({1-[(2S)-2-hydroxypropanoyl]piperidin-4-yl}oxy)-5-[2-({4-[(4-methylpierazin-1-yl)carbonyl]phenyl}amino)pyrimidin-4-yl]benzonitrile] |
| < 0.005 | < 0.01 | < 0.1 | 0.0002 | 0.0004 | 0.0162 | COc1cc(Nc2nccc(-c3ccc(OC4CCN(C(=O)CO)CC4)c(C#N)c3)n2)ccc1N1CCOCC1 [Example 59, 2-{[1-(hydroxyacetyl)piperidin-4-yl]oxy}-5-(2-{[3-methoxy-4-(morpholin-4-yl)phenyl]amino}pyrimidin-4-yl)benzonitrile] |
| 0.005 to 0.05 | < 0.01 | 0.25 to 0.5 | – | – | – | N#Cc1cc(-c2ccnc(Nc3ccc(N4CCOCC4)cc3)n2)ccc1NCc1ccccn1 [Example 64, 5-(2-{[4-(Morpholin-4-yl)phenyl]amino}pyrimidin-4-yl)-2-[(pyridin-2-ylmethyl)amino] benzonitrile] |
| < 0.005 | 0.01 to 0.1 | 0.25 to 0.5 | – | – | – | N#Cc1cc(-c2ccnc(Nc3ccc(N4CCOCC4)cc3)n2)ccc1OCC1CCNCC1 [Example 72, 5-(2-{[4-(morpholin-4-yl)phenyl]amino}pyrimidin-4-yl)-2-(piperidin-4-ylmethoxy) benzonitrile] |
| < 0.005 | < 0.01 | < 0.1 | – | – | – | COc1cc(Nc2nccc(-c3ccc(OC4CCOCC4)c(C#N)c3)n2)ccc1N1CCOCC1 [Example 73, 5-(2-{[3-methoxy-4-(morpholin-4-yl)phenyl]amino}pyrimidin-4-yl)-2-(tetrahydro-2H-pyran-4-yloxy)benzonitrile] |
| < 0.005 | < 0.01 | 0.25 to 0.5 | – | – | – | COc1cc(Nc2nccc(-c3ccc(NC(=O)C(C)C)c(C#N)c3)n2)ccc1N1CCOCC1 [Example 75, N-[2-cyano-4-(2-{[3-methoxy-4-(morpholin-4-yl)phenyl]amino}pyrimidin-4-yl)phenyl]-2-methylpropanamide] |
| < 0.005 | < 0.01 | 0.1 to 0.25 | – | – | – | COc1cc(Nc2nccc(-c3ccc(OC4CCOCC4)c(C#N)c3)n2)ccc1S(=O)(=O)NCCCn1ccnc1 [Example 83, 4-({4-[3-cyano-4-(tetrahydro-2H-pyran-4-yloxy)phenyl]pyrimidin-2-yl}amino)-N-[3-(1H-imidazol-1-yl)propyl]-2-methoxybenzene-sulfonamide] |
| < 0.005 | < 0.01 | 0.1 to 0.25 | 0.0007 | 0.0003 | 0.139 | N#Cc1cc(-c2ccnc(Nc3ccc(N4CCOCC4)cc3)n2)ccc1NC(=O)CC(F)(F)F [Example 93, N-[2-cyano-4-(2-{[4-(morpholin-4-yl)phenyl]amino}pyrimidin-4-yl)phenyl]-3,3,3-trifluoropropanamide] |
| < 0.005 | < 0.01 | 0.25 to 0.5 | – | – | – | COc1cc(Nc2nccc(-c3ccc(OC4CCOCC4)c(C#N)c3)n2)ccc1C(=O)NCCCN(C)C [Example 103, 4-({4-[3-cyano-4-(tetrahydro-2H-pyran-4-yloxy)phenyl]pyrimidin-2-yl}amino)-N-[3-(dimethylamino)propyl]-2-methoxybenzamide] |
| < 0.005 | < 0.01 | < 0.1 | – | – | – | COc1cc(Nc2nccc(-c3ccc(OC4CCOCC4)c(C#N)c3)n2)ccc1S(=O)(=O)N1CCN(C)CC1 [Example 114, 5-[2-({3-methoxy-4-[(4-methylpiperazin-1-yl)sulfonyl]phenyl}amino)pyrimidin-4-yl]-2-(tetrahydro-2H-pyran-4-yloxy)benzonitrile] |
| < 0.005 | < 0.01 | 0.25 to 0.5 | – | – | – | COc1ccc(Nc2nccc(-c3ccc(OC4CCOCC4)c(C#N)c3)n2)cc1OCC(N)=O [Example 132, 2-[5-({4-[3-cyano-4-(tetrahydro-2H-pyran-4-yloxy)phenyl]pyrimidin-2-yl}amino)-2-methoxyphenoxy] acetamide] |
| < 0.005 | < 0.01 | 0.25 to 0.5 | – | – | – | COc1ccc(-c2ccnc(Nc3ccc(N4CCOCC4)c(OC)c3)n2)cc1C#N [Example 157, 2-Methoxy-5-(2-{[3-methoxy-4-(morpholin-4-yl)phenyl]amino}pyrimidin-4-yl)benzonitrile] |
| < 0.005 | < 0.01 | < 0.1 | 0.0009 | 0.0003 | 0.0125 | COc1cc(Nc2nccc(-c3ccc(OC4CCOCC4)c(C#N)c3)n2)ccc1S(=O)(=O)NCCCN1CCOCC1 [Example 176] |
| < 0.005 | < 0.01 | < 0.1 | – | – | – | CN1CCN(c2ccc(Nc3nccc(-c4ccc(OC5CCOCC5)c(C#N)c4)n3)cc2)CC1 [Example 178, 5-(2-{[4-(4-methylpiperazin-1-yl)phenyl]amino}pyrimidin-4-yl)-2-(tetrahydro-2H-pyran-4-yloxy)benzonitrile] |
